From patent US11976074B1, “Crystalline salts of Linsitinib” (Sling Therapeutics, Inc., priority 2023, dated 2024)

How the values were obtained:
Type in all cases: physicochemical
[1] = Interconversion slurries of esylate forms; conditions: 4° C., RT, 60° C.; MEK and 2:1 EtOH:HEP
Description: To find the thermodynamically stable form of the mono-salt, interconversion slurries were set-up at three different temperatures in two different solvent systems between Esylates 1, 2, 3 and Esylate 4+Esylate 5 (Table 11). A sample of Esylate 4+Esylate 5 was included as part of the interconversion slurry in-spite of Esylate 4 being a solvate as Esylate 5 could not be isolated as a separate pure phase until the drying experiment was carried out on Esylate 4 towards the end of the study. Slurries were set-up at 4° C., RT and at 60° C. in MEK and 2:1 EtOH:HEP, resulting in a total of six experiments which were run for a total of 7 days.

[2] = Thermogravimetric analysis (TGA)
Description: The TG analysis was carried out using a TA Instruments […] Discovery Series instrument. The instrument balance was calibrated using class M weights and the temperature calibration was performed using alumel. The nitrogen purge was 10 mL per minute at the balance and 25 mL per minute at the furnace. The sample was placed into a pre-tared platinum pan and heated from approximately 25° C. to 300° C. at a rate of 10° C. per minute.

[3] = Polymorph screen of linsitinib malate (PXRD/XRPD result); conditions: solvent and conditions per sample no.; for PXRD Results: polymorph screen of linsitinib malate, slurry, cooling, precipitation or lyophilization
Description: A Rigaku SmartLab X-Ray Diffractometer was configured in Bragg-Brentano reflection geometry equipped with a beam stop and knife edge to reduce incident beam and air scatter.
A polymorph screen of linsitinib malate was conducted. Experiments were designed to target thermodynamically stable forms and therefore utilized techniques such as long-term slurry, cooling, anti-solvent addition, and evaporation. Reaction crystallization experiments with linsitinib free base and L-malic acid were also conducted. Additionally, non-crystalline material was used as an alternative starting material as this can provide access to polymorphs that would not be accessible from crystalline starting material.

[4] = Physical stability on capped storage at room temperature (PXRD reanalysis)
Description: A theoretical hemi-hydrate for a mono-edisylate salt of linsitinib would contain 1.4% water. Additional endotherms are observed at 252 and 278° C. that are likely due to melt/decomposition based on the corresponding weight loss in the TGA beginning around 244° C.
HCl 1 was generated via evaporation of a solution containing 1:1 linsitinib:acid in tetrahydrofuran (THF)/water at 70° C. […] The weight loss is likely due to water and potentially evolution of hydrochloric acid.
The sample was initially analyzed by PXRD and stored at ambient temperature in a capped vial. (FIG. 85).

[5] = pH-solubility of linsitinib free base and selected salts (pH 1.5 to 6.5, overnight equilibration, HPLC); conditions: for solubility: overnight equilibration; for Final pH: after overnight equilibration
Description: The pH-solubility of selected salts (Phosphate 1, L-Malate 1, Esylate 1, and Esylate 2) was evaluated and compared with linsitinib free base. The solubility analysis was conducted in a manner consistent with a previous study that was performed with linsitinib free base. Aqueous solutions were prepared between pH 1.5 and pH 6.5 in 0.5 pH unit increments via titration of the solution using NaOH and HCl. For each salt or the free base, an attempt was made to reach saturation in each of the solutions by adding sufficient material to the solution such that excess solids remained. If saturation was achieved, the pH of the solution was measured and adjusted to the target pH and additional material was added if needed. The samples were then equilibrated overnight. The final pH of the solution was measured, the solids were filtered and selected samples were analyzed by PXRD. The concentration of linsitinib in the filtrate was quantitated by HPLC (diluted as needed). In some cases, significant drift (+1 pH unit or more) of the final pH from the target pH was observed after the overnight equilibration.
The pH-solubility data is shown graphically in FIG. 89. […] Indeed, it should be noted that in the majority of the low pH systems, higher initial dissolution/solubility was observed followed by precipitation of the material from solution upon longer equilibration.

[6] = Equilibrium solubility in bio-relevant media (FaSSGF pH 1.6, FaSSIF pH 6.5); conditions: for Solubility compared with the free base: in words
Excerpt: In addition to the pH-solubility data, a comparison of the equilibrium solubility of linsitinib free base and salts in two bio-relevant media (Table 28), fasted state simulated gastric fluid (FaSSGF pH 1.6) and intestinal fluid (FaSSIF pH 6.5) was completed. […] A saturated solution of Esylate 1 was not achieved during this study and therefore the equilibrium solubility could be higher than determined. It should be noted that variability of almost a full pH unit was noted among the samples making a direct comparison more challenging.

[7] = Water activity slurries of Esylate 2 seeded with Esylate 1; conditions: THF/H2O, aw 0.45-0.91, RT
Excerpt: Water activity slurries were set-up with Esylate 2 and seeds of Esylate 1 to explore the presence of a potential hydrate and any associated critical water activity (Table 12). Four slurries were set-up in varying ratios of THF and H2O corresponding to 0.45, 0.63, 0.78 and 0.91 aw respectively.

[8] = aqueous solution, pH 4, aqueous buffer, thermodynamic from solid, target pH 4.0, * = clear solution, not equilibrium value, read-out: Solubility
[9] = aqueous solution, pH 4.5, aqueous buffer, thermodynamic from solid, target pH 4.5, * = clear solution, not equilibrium value, read-out: Solubility
[10] = aqueous solution, pH 5, aqueous buffer, thermodynamic from solid, target pH 5.0, read-out: Solubility
[11] = aqueous solution, pH 5.5, aqueous buffer, thermodynamic from solid, target pH 5.5, read-out: Solubility
[12] = aqueous solution, pH adjusted with NaOH and HCl, pH 1.5, aqueous buffer, thermodynamic from solid, target pH 1.5, * = clear solution, not equilibrium value, read-out: Solubility
[13] = aqueous solution, pH adjusted with NaOH and HCl, pH 2, aqueous buffer, thermodynamic from solid, target pH 2.0, * = clear solution, not equilibrium value, read-out: Solubility
[14] = aqueous solution, pH adjusted with NaOH and HCl, pH 2.5, aqueous buffer, thermodynamic from solid, target pH 2.5, * = clear solution, not equilibrium value, read-out: Solubility
[15] = aqueous solution, pH adjusted with NaOH and HCl, pH 3, aqueous buffer, thermodynamic from solid, target pH 3.0, * = clear solution, not equilibrium value, read-out: Solubility
[16] = aqueous solution, pH adjusted with NaOH and HCl, pH 3.5, aqueous buffer, thermodynamic from solid, target pH 3.5, * = clear solution, not equilibrium value, read-out: Solubility
[17] = fasted state simulated gastric fluid (FaSSGF), pH 1.6, fassgf or other biorelevant, thermodynamic from solid, FaSSGF (pH 1.6), read-out: Solubility

CCS(=O)(=O)O.C[C@]1(O)C[C@@H](c2nc(-c3ccc4ccc(-c5ccccc5)nc4c3)c3c(N)nccn32)C1 [Esylate 5]
Relative stability of the form in interconversion slurries [1]: metastable

C[C@]1(O)C[C@@H](c2nc(-c3ccc4ccc(-c5ccccc5)nc4c3)c3c(N)nccn32)C1.O=C(O)C[C@H](O)C(=O)O [L-Malate 6]
TGA Results (weight loss) ([2]; start to 61° C.): 4.2%, start to 61 °C

C[C@]1(O)C[C@@H](c2nc(-c3ccc4ccc(-c5ccccc5)nc4c3)c3c(N)nccn32)C1.O=C(O)C[C@H](O)C(=O)O [L-Malate 2]
PXRD Results ([3]; listed as 4-45): Malate 2

C[C@]1(O)C[C@@H](c2nc(-c3ccc4ccc(-c5ccccc5)nc4c3)c3c(N)nccn32)C1.O=C(O)C[C@H](O)C(=O)O [L-Malate 9]
XRPD Results ([3]; polymorph screen starting from non-crystalline linsitinib L-malate, vapor stress, humidity stress, slurry or precipitation, listed as 4-66): Malate 9

C[C@]1(O)C[C@@H](c2nc(-c3ccc4ccc(-c5ccccc5)nc4c3)c3c(N)nccn32)C1 [Form J]
PXRD result after storage at RT ([4]; 17 days, capped): Form I | PXRD result after storage at RT ([4]; 20 days, capped): converted to Form I

C[C@]1(O)C[C@@H](c2nc(-c3ccc4ccc(-c5ccccc5)nc4c3)c3c(N)nccn32)C1.O=P(O)(O)O [Phosphate 1]
solubility [5, 8]: 5.87 mg/mL | solubility [5, 9]: 3.04 mg/mL | solubility [5, 10]: 0.0458 mg/mL | solubility [5, 11]: 0.035 mg/mL | solubility ([5]; aqueous solution, pH 6, aqueous buffer, thermodynamic from solid, target pH 6.0, read-out: Solubility): 0.0046 mg/mL | solubility ([5]; aqueous solution, pH 6.5, aqueous buffer, thermodynamic from solid, target pH 6.5, read-out: Solubility): 0.001 mg/mL | solubility [5, 12]: 38.6 mg/mL | solubility [5, 13]: 25.9 mg/mL | solubility [5, 14]: 18.4 mg/mL | solubility [5, 15]: 14.9 mg/mL | solubility [5, 16]: 7.5 mg/mL | Final pH ([5]; target pH 1.5): 1.39 | Final pH ([5]; target pH 2.0): 1.72 | Final pH ([5]; target pH 2.5): 2.46 | Final pH ([5]; target pH 3.0): 2.58 | Final pH ([5]; target pH 3.5): 2.89 | Final pH ([5]; target pH 4.0): 3.69 | Final pH ([5]; target pH 4.5): 4.01 | Final pH ([5]; target pH 5.0): 5.49 | Final pH ([5]; target pH 5.5): 5.73 | Final pH ([5]; target pH 6.0): 5.65 | Final pH ([5]; target pH 6.5): 6.21 | Final pH ([6]; FaSSGF (pH 1.6)): 2.74 | Solubility compared with the free base ([6]; FaSSGF (pH 1.6)): largely comparable | Final pH ([6]; FaSSIF (pH 6.5)): 5.63 | solubility [6, 17]: 9.51 mg/mL | solubility ([6]; fasted state simulated intestinal fluid (FaSSIF), pH 6.5, fassif, thermodynamic from solid, FaSSIF (pH 6.5), read-out: Solubility): 0.009 mg/mL

C[C@]1(O)C[C@@H](c2nc(-c3ccc4ccc(-c5ccccc5)nc4c3)c3c(N)nccn32)C1 [Form B, reference compound]
PXRD result after storage at RT ([4]; 23 days): Form B (LC)

C[C@]1(O)C[C@@H](c2nc(-c3ccc4ccc(-c5ccccc5)nc4c3)c3c(N)nccn32)C1.Cl [HCl 1]
PXRD result after storage at RT ([4]; 17 days, capped): no significant changes | PXRD result after storage at RT ([4]; 17 days, capped, listed as 2-11): HCl 1

C[C@]1(O)C[C@@H](c2nc(-c3ccc4ccc(-c5ccccc5)nc4c3)c3c(N)nccn32)C1 [Form I]
PXRD result after storage at RT ([4]; 20 days, capped, listed as 2-13): Form I

C[C@]1(O)C[C@@H](c2nc(-c3ccc4ccc(-c5ccccc5)nc4c3)c3c(N)nccn32)C1.O=C(O)C[C@H](O)C(=O)O [L-Malate 3]
TGA Results (weight loss) ([2]; 90° C. to 139° C.): 0.6%, 90 °C to 139 °C | TGA Results (weight loss) ([2]; start to 90° C.): 3.0%, start to 90 °C | PXRD Results ([3]; listed as 4-22): Malate 3; LC

CCS(=O)(=O)O.C[C@]1(O)C[C@@H](c2nc(-c3ccc4ccc(-c5ccccc5)nc4c3)c3c(N)nccn32)C1 [Esylate 1]
solubility [5, 8]: 32.3 mg/mL | solubility [5, 9]: 36.6 mg/mL | solubility [5, 10]: 28.7 mg/mL | solubility [5, 11]: 0.0517 mg/mL | solubility [5, 12]: 64.3 mg/mL | solubility [5, 13]: 59.1 mg/mL | solubility [5, 14]: 47.3 mg/mL | solubility [5, 15]: 53 mg/mL | solubility [5, 16]: 31 mg/mL | Solubility compared to the free base and other salts ([5]; between pH 3 and pH 4): highest solubility | Solubility compared with the free base or Phosphate 1 ([5]; lower pH (<3)): significantly higher solubility | Final pH ([5]; target pH 1.5): 1.52 | Final pH ([5]; target pH 2.0): 1.99 | Final pH ([5]; target pH 2.5): 2.50 | Final pH ([5]; target pH 3.0): 3.04 | Final pH ([5]; target pH 3.5): 3.50 | Final pH ([5]; target pH 4.0): 3.94 | Final pH ([5]; target pH 4.5): 4.36 | Final pH ([5]; target pH 5.0): 3.86 | Final pH ([5]; target pH 5.5): 4.47 | Final pH ([5]; target pH 6.0): 9.08 | Final pH ([5]; target pH 6.5): 4.46 | solubility ([5]; target pH 6.5): 0.0296 mg/mL | Final pH ([6]; FaSSGF (pH 1.6)): 3.30 | Solubility compared with the free base ([6]; FaSSGF (pH 1.6)): highest solubility by a significant margin | Final pH ([6]; FaSSIF (pH 6.5)): 6.20 | solubility ([6]; FaSSIF (pH 6.5)): 0.006 mg/mL | Solubility compared with the free base ([6]; FaSSIF (pH 6.5)): lower solubility | solubility [6, 17]: ≥ 61.6 mg/mL | Relative stability of the form in water activity slurries [7]: metastable

C[C@]1(O)C[C@@H](c2nc(-c3ccc4ccc(-c5ccccc5)nc4c3)c3c(N)nccn32)C1 [Edisylate 1]
PXRD result after storage at RT ([4]; 20 days, capped): no significant changes | PXRD result after storage at RT ([4]; 20 days, capped, listed as 2-4): Edisylate 1
